Source: patent US20160251403A1, “PEPTIDE COMBINATIONS AND USES THEREOF IN TREATING DUST MITE ALLERGY” (ALK-ABELLO A/S, priority 2013, published 2016)
No end group written: not given here.

What was measured:
[1] = target: DRB1_0301 (Homo sapiens, UniProt P01903+P01911, A100K/A102G/A103R/A169T/F55Y/I96L/K41T/L162R/M171V/P40S/Q125H/Q178H/Q39Y/R42S/S66N/T106N/T262R/W38E/Y61H); assay: Competitive MHC class II binding assay, DRB1_0301
[2] = target: DRB1_0901 (Homo sapiens, UniProt P01903+P01911, A100R/A103E/D57H/D86V/F55Y/F60I/F76Y/I96F/K127E/L162R/M171V/P40D/Q125H/Q99R/R33Q/R42F/S133A/S66N/T210M/V115G/W38K/Y107V/Y59G/Y89S); assay: Competitive MHC class II binding assay, DRB1_0901;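 also: displacement of a radiolabeled probe peptide from purified HLA class II protein, bound counts read after two to four days incubation, six concentrations spanning 100,000-fold, unlabeled probe as reference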
[3] = target: T1, DPA10103-DPB10301 (Homo sapiens, UniProt P04440+P20036, A65V/A84D/A85E/E86D/F38Y/G113D/G114E/G40L/I94L/L37V/M105V/M116V/P115A/R125K/T199I); assay: Competitive MHC class II binding assay, DPA10103-DPB10301
T1 sequence (P20036 29-260): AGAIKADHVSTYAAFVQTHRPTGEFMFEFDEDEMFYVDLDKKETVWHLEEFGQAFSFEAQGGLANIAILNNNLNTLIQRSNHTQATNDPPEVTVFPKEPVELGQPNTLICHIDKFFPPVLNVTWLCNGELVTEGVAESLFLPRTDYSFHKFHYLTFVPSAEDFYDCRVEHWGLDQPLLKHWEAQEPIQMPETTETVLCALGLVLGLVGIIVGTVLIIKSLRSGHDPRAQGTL
T1 sequence (P04440 30-258 L37V/F38Y/G40L/A65V/A84D/A85E/E86D/I94L/M105V/G113D/G114E/P115A/M116V/R125K/T199I/V234M): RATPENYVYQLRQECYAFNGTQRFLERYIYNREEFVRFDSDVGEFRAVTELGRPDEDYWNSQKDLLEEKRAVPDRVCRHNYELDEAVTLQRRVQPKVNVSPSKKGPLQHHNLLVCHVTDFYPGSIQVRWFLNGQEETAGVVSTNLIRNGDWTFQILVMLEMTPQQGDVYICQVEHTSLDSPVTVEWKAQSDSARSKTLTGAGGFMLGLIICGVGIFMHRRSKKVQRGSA

[4] = target: DRB4_0101 (Homo sapiens, UniProt P01903+P13762, G164S); assay: Competitive MHC class II binding assay, DRB4_0101
[5] = target: DRB1_0405 (Homo sapiens, UniProt P01903+P01911, A100R/A169T/D86S/F76Y/I96L/K127E/L162R/M171V/N62H/P40V/Q125Y/R42H/S133A/S149N/S66Y/V115G/V209L/W38E); assay: Competitive MHC class II binding assay, DRB1_0405
[6] = target: DRB1_0401 (Homo sapiens, UniProt P01903+P01911, A100K/A169T/F76Y/I96L/K127E/L162R/M171V/N62H/P40V/Q125Y/R42H/S133A/S149N/S66Y/V115G/V209L/W38E); assay: Competitive MHC class II binding assay, DRB1_0401
[7] = target: DRB1_0802 (Homo sapiens, UniProt P01903+P01911, A100R/A103L/A169T/F76Y/H45Y/I96F/K41T/L162R/M171V/P40S/Q125H/Q178H/Q39Y/Q99D/R218S/R42G/S66Y/V115G/W38E); assay: Competitive MHC class II binding assay, DRB1_0802
[8] = target: DRB1_0701 (Homo sapiens, UniProt P01903+P01911, A100R/A102G/A103Q/D57E/D86V/E43K/F76Y/K127E/L162R/M171V/P40G/Q125H/Q99D/R33Q/R42Y/R54Q/S133A/S66F/T210M/V115G/Y107V/Y59L/Y89S); assay: Competitive MHC class II binding assay, DRB1_0701;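 also: displacement of a radiolabeled reference peptide from purified HLA class II protein, with complex-bound radioactivity counted after 2–4 days of incubation and six concentrations spanning a 100,000-fold range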
[9] = target: DRB1_0101 (Homo sapiens, UniProt P01903+P01911, A100R/D57E/F55L/F60I/F76Y/I96L/L162R/M171V/P40L/Q125E/R42F/V115G/Y59C); assay: Competitive MHC class II binding assay, DRB1_0101;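 also: competition against a radiolabeled probe peptide (0.1–1 nM) for purified HLA class II protein over 2–4 days, bound counts read after antibody capture, six competitor levels across 100,000-fold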
[10] = target: DRB1_1201 (Homo sapiens, UniProt P01903+P01911, A100R/A169T/D57E/D86V/F55L/H45Y/K41T/L162R/M171V/P40S/Q125H/Q178H/Q39Y/Q99D/R42G/S66L/T262R/V114A/V67L/W38E/Y59H/Y61H/Y89S); assay: Competitive MHC class II binding assay, DRB1_1201
[11] = target: DRB1_1101 (Homo sapiens, UniProt P01903+P01911, A100R/A169T/A87E/I96F/K41T/L162R/M171V/P40S/Q125H/Q178H/Q39Y/Q99D/R42S/S66Y/T262R/V115G/W38E); assay: Competitive MHC class II binding assay, DRB1_1101
[12] = target: DRB5_0101 (Homo sapiens, UniProt P01903+Q30154); assay: Competitive MHC class II binding assay, DRB5_0101
[13] = target: T2, DPA10103-DPB10201 (Homo sapiens, UniProt P04440+P20036, A65V/A84D/A85E/K98E); assay: Competitive MHC class II binding assay, DPA10103-DPB10201
T2 sequence (P20036 29-260): T1 sequence (P20036 29-260)
T2 sequence (P04440 30-258 A65V/A84D/A85E/K98E): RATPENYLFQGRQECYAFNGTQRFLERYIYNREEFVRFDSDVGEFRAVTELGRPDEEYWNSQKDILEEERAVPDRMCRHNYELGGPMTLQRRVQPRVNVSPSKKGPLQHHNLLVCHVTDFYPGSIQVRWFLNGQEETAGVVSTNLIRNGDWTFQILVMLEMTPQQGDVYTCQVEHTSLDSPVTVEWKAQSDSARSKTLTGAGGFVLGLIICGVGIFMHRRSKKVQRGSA

[14] = target: DRB1_1302 (Homo sapiens, UniProt P01903+P01911, A100E/A169T/K41T/L162R/M171V/P40S/Q125H/Q178H/Q39Y/Q99D/R42S/S66N/T262R/V115G/W38E/Y61H); assay: Competitive MHC class II binding assay, DRB1_1302;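 also: purified HLA class II protein incubated two to four days with a radiolabeled reference binder and test peptide at six concentrations over a 100,000-fold range, complex-bound radioactivity counted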
[15] = target: DRB1_1501 (Homo sapiens, UniProt P01903+P01911); assay: Competitive MHC class II binding assay, DRB1_1501
[16] = system: DQA10401-DQB10402; assay: Competitive MHC class II binding assay, DQA10401-DQB10402
[17] = target: DRB3_0202 (Homo sapiens, UniProt P01903+P79483, A212P/D57E/F66Y/L67A/R103Q/R218S/R40L/S89Y/T80R/V86D/Y55F/Y59H); assay: Competitive MHC class II binding assay, DRB3_0202
[18] = Solubility of peptides in aqueous solutions at different pH (visual inspection, OD, HPLC); format: physicochemical; conditions: pH 7, visual inspection
Excerpt: This example describes modifications of parent peptides to improve the aqueous solubility, in particular to increase the solubility in an aqueous solution having pH in a physiologically acceptable range, e.g. from 6 to 8. Solubility is closely related to the ratio between hydrophilic and hydrophobic amino acid residues and the net charge state of the peptide. Peptides have zero net charge at pH=pI, and would be expected to show the lowest solubility at this pH. […] The solubility of these peptides was increased at pH values outside the physiological range (data not shown).
Peptides were tested for their ability to dissolve in aqueous solutions at different pH values. In short, each of the peptides were dissolved in water (pH about 5-6), hydrochloride solution at pH 2 (10 mM HCl), acetate buffer with pH 5 (20 mM acetate and 140 mM sodium chloride), phosphate buffer with pH 7 (20 mM phosphate and 140 mM sodium chloride) or bistrispropate buffer with pH 9 (20 mM bitrispropane and 140 mM sodium chloride, respectively, to produce a final molar concentration of the peptide of about 0.25 mM or 1 mM. Optionally, about 20% DMSO may be part of the solution. For comparison reasons, peptides were also dissolved in acetonitrile or DMSO. The solutions were inspected visually before and after centrifugation for turbidity, presence of particles/aggregates. In addition, presence of turbidity/particles/aggregates were detected by optical density (OD), but might also be detected by size-exclusion chromatography. Sub-visual particles may also be detected by dynamic light scattering (DLS) analysis. The solubility and stability of each peptide were also investigated using HPLC, e.g. RP-HPLC. For example, each of the solutions were injected onto the HPLC and the peak height or peak area of each of the peptides were compared to the corresponding peptide of a chromatogram of peptides dissolved in acetonitrile or DMSO—as peptides were assumed to be fully dissolved and stable in these solvents.

[19] = target: DRB3_0101 (Homo sapiens, UniProt P01903+P79483); assay: Competitive MHC class II binding assay, DRB3_0101
[20] = target: DQA10102-DQB10602; assay: Competitive MHC class II binding assay, DQA10102-DQB10602; conditions: read-out: HLA-DQA10102-DQB10602; positive binding at cutoff 1000 nM
[21] = target: DQA10501-DQB10201 (Homo sapiens, UniProt P01909+P01920, A45G/A70V/D89A/E106A/E77G/E98D/H199R/L107V/N214S/P84L/P87L/T103K/T109R/T172A/T60S/V78E/V99I/Y58L/Y62S/Y69I/Y79F); assay: Competitive MHC class II binding assay, DQA10501-DQB10201

Sequence | IC50 [1] | IC50 [2] | IC50 [3] | IC50 [5] | IC50 [6] | IC50 [7] | IC50 [8] | IC50 [9] | IC50 [10] | IC50 [11] | IC50 [12] | IC50 [14] | IC50 [17] | further results
DLRQMRTVTPIRMQGGSGS [HDM203B, reference compound] | < 1 µM | < 1 µM | < 1 µM | < 1 µM | < 1 µM | < 1 µM | < 1 µM | < 1 µM | < 1 µM | < 1 µM | < 1 µM | < 1 µM | – | IC50 [4]: < 1 µM; IC50 [13]: < 1 µM; IC50 [15]: < 1 µM
IEYIQQNGVVEERSYPYVAR [pep-075] | < 1 µM | – | – | < 1 µM | – | – | – | < 1 µM | < 1 µM | – | – | < 1 µM | < 1 µM | binding to HLA Class II allele DQA10401-DQB10402 ([16]; as shown in Table 16a): binds to at least the same alleles as peptide 041; IC50 ([16]; read-out: HLA-DQA10401-DQB10402, positive binding at cutoff 1000 nM): < 1 µM; binding to HLA Class II allele DRB3_0202 ([17]; as shown in Table 16a): binds to at least the same alleles as peptide 041; Solubility at pH 7 (visual inspection) [18]: Turbid; IC50 [19]: < 1 µM; binding to HLA Class II allele DRB3_0101 ([19]; as shown in Table 16a): binds to at least the same alleles as peptide 041; IC50 [20]: < 1 µM; IC50 [21]: < 1 µM; binding to HLA Class II allele DQA10501-DQB10201 ([21]; as shown in Table 16a): binds to at least the same alleles as peptide 041; binding to HLA Class II allele DRB1_1302 ([14]; as shown in Table 16a): binds to at least the same alleles as peptide 041
QESYYRYVAREQSSRR [pep-122] | – | < 1 µM | < 1 µM | < 1 µM | < 1 µM | < 1 µM | < 1 µM | < 1 µM | < 1 µM | < 1 µM | < 1 µM | – | < 1 µM | –
